Measured values: paper PMC3242765, “Inhibitors of Alphavirus Entry and Replication Identified with a Stable Chikungunya Replicon Cell Line and Virus-Based Assays” (PLoS ONE, 2011)

Experiments:
CHIKV replicon = test: microbe, parasite or virus in culture; type: cell-based, Chikungunya virus (CHIKV)

Compound | CHIKV replicon % left (CHIKV replicon) [%] | SFV replication % left (surviving fraction, remaining percentage of SFV replication) (SFV-Rluc) [%]
Nc1ccc(Cl)cc1C(=O)c1ccccc1F [2-Amino-5-chloro-2'-fluorobenzophenone] | 82.2 | 167.4
CC(=O)c1ccccc1O [2-Hydroxyacetophenone] | 99.4 | 129.7
O=C(O)Cc1ccccc1O [2-Hydroxyphenylacetic acid] | 14.3 | 7.3
COc1cc(C(=O)O)cc(OC)c1OC [3,4,5-Trimethoxybenzoic acid] | 28.8 | 34.0
O=C(O)c1ccc(O)c(O)c1 [3,4-Dihydroxybenzoic acid] | 101.6 | 124.5
O=C(O)c1cc(O)cc(O)c1 [3,5-Dihydroxybenzoic acid] | 87.8 | 6.9
O=c1oc2cc(O)ccc2cc1-c1nc2ccccc2o1 [3-(2-Benzoxazolyl)umbelliferone] | 61.8 | 21.0
CC(=O)CC(c1ccccc1)c1c(O)c2ccccc2oc1=O (centres unmarked) [3-(a-Acetonylbenzyl)-4-hydroxycoumarin] | 57.2 | 79.5
O=C(c1ccccc1)c1cc2c(ccc3ccccc32)oc1=O [3-Benzoylbenzo(F)coumarin] | 68.0 | 39.9
CC(=O)c1cccc(O)c1 [3-Hydroxyacetophenone] | 97.4 | 125.8
O=C(O)Cc1cccc(O)c1 [3-hydroxyphenylacetic acid] | 54.1 | 110.8
CN1C(=O)CN=C(c2ccc(Cl)cc2)c2cc(Cl)ccc21 [4'-Chlorodiazepam] | 105.5 | 64.0
Cc1c(N)c(=O)n(-c2ccccc2)n1C [4-Aminoantipyrine [ampyrone]] | 89.2 | 51.6
O=c1cc(O)c2ccccc2o1 [4-Hydroxycoumarin] | 95.4 | 100.2
O=C(O)Cc1ccc(O)cc1 [4-Hydroxyphenylacetic acid] | 87.2 | 103.6
Cc1ccc(O)c(O)c1 [4-Methyl pyrocatechol] | 98.8 | 111.1
Cc1cc(=O)oc2cc(O)ccc12 [4-Methylumbelliferone] | 105.6 | 90.9
C[C@@]12CCC[C@H]1[C@@H]1CC[C@H]3CCCC[C@]3(C)[C@H]1CC2 [4-a-Androstane] | 85.5 | 53.0
Cc1cc(=O)oc2cc(O)cc(O)c12 [5,7-Dihydroxy-4-methylcoumarin] | 78.1 | 66.7
Cc1cc(=O)oc2cc(O)c(O)cc12 [6,7-Dihydroxy-4-methylcoumarin] | 95.4 | 131.1

Compound | CHIKV replicon % left (CHIKV replicon) [%] | SFV replication % left (surviving fraction, remaining percentage of SFV replication) (SFV-Rluc) [%]
O=C(O)c1cc2cc(Br)cc(Br)c2oc1=O [6,8-Dibromocoumarin carboxylic acid] | 100.1 | 67.4
COc1ccc2oc(=O)cc(C)c2c1 [6-Methoxy-4-methylcoumarin] | 85.4 | 66.6
Cc1ccc2oc(=O)ccc2c1 [6-Methylcoumarin] | 106.5 | 83.6
CCCc1cc(=O)[nH]c(=S)[nH]1 [6-Propyl-2-thiouracil] | 100.5 | 81.0
Cn1c(=O)c2c(ncn2CC(O)CO)n(C)c1=O (centres unmarked) [7-(2,3-Dihydroxypropyl)theophylline] | 54.3 | 100.1
CC(O)Cn1cnc2c1c(=O)n(C)c(=O)n2C (stereo not drawn) [7-(β-Hydroxypropyl)theophylline] | 70.9 | 125.5
COc1ccc2c(C)cc(=O)oc2c1 [7-Methoxy-4-methylcoumarin] | 100.6 | 72.2
C#C[C@]1(O)CC[C@H]2[C@@H]3CCc4cc(O)ccc4[C@H]3CC[C@@]21C [17 -a-ethynylestradiol] | 59.8 | 11.7
Oc1cc(O)c2c(c1)O[C@H](c1ccc(O)c(O)c1)[C@@H](O)C2 [(+)-Catechin] | 96.5 | 64.5
O=C1c2c(O)cc(O)cc2O[C@H](c2ccc(O)c(O)c2)[C@H]1O [(+)-Taxifolin] | 105.4 | 93.7
Cc1c(C)c2c(c(C)c1OC(=O)CCC(=O)O)CC[C@@](C)(CCC[C@H](C)CCC[C@H](C)CCCC(C)C)O2 [(+)-a-Tocopherol acid succinate] | 62.2 | 75.3
Oc1cc(O)c2c(c1)O[C@H](c1ccc(O)c(O)c1)[C@H](O)C2 [(-)-Epicatechin] | 79.6 | 97.1
O=C(O[C@@H]1Cc2c(O)cc(O)cc2O[C@@H]1c1cc(O)c(O)c(O)c1)c1cc(O)c(O)c(O)c1 [(-)-Epigallocatechin gallate] | 90.4 | 155.3
Oc1cc(O)c2c(c1)O[C@H](c1cc(O)c(O)c(O)c1)[C@H](O)C2 [(-)-Epigallocatechin] | 89.9 | 101.9
O=C(O)[C@]1(O)C[C@@H](O)[C@@H](O)[C@H](O)C1 [(-)-Quinic acid] | 106.9 | 98.2
COc1ccc(-c2cc(=O)c3c(O)cc(O)cc3o2)cc1 [Acacetin] | 103.3 | 78.1
CC(=O)Nc1ccc(O)cc1 [Acetaminophen [paracetamol]] | 85.2 | 63.5
CC(=O)Nc1ccccc1 [Acetanilide] | 92.2 | 57.3
CC(=O)Nc1nnc(S(N)(=O)=O)s1 [Acetazolamide] | 102.2 | 71.3
O=C1NC2NC(=O)NC2N1 (centres unmarked) [Acetyleneurea [acetylene carbamide]] | 105.4 | 55.2
